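Values below derive from 48-hour exposures of cells grown in 96-well plates, with endpoints linearly interpolated between the two concentrations bracketing the appropriate inhibition level. TGI: total growth inhibition.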

Among the data in PubChem BioAssay (NCI) are TGI values, retold here.

Among the test systems are SF-295 CNS; SF-539 CNS; RXF 393 renal; SK-MEL-2 melanoma; DU-145 prostate; OVCAR-4 ovarian; MDA-N; CAKI-1 renal; MCF7 breast; SF-268 CNS; UACC-62 melanoma.
Holding throughout (experiment): NCI tumour cell line growth inhibition, 48 h

Consider `Cc1nc2ccccc2n1CCc1nc2ccccc2s1`, for which the TGI with SF-295 CNS, in the test on SF-539 CNS, with RXF 393 renal, with SK-MEL-2 melanoma, in the test on DU-145 prostate and with OVCAR-4 ovarian was above 100 µM in each case. In addition, the TGI in the test with MDA-N, with CAKI-1 renal, in the test on MCF7 breast, in the test with SF-268 CNS and in the test on UACC-62 melanoma was above 100 µM in each case.

`CC(=O)C(=C(I)I)c1ccccc1`: the TGI with SF-295 CNS worked out at 50.1 µM; in the test with SF-539 CNS it was 38.9 µM; in the test on RXF 393 renal, 46.4 µM; in the test with SK-MEL-2 melanoma, 53.6 µM; in the test on DU-145 prostate, 60.4 µM; in the test with OVCAR-4 ovarian, 31.3 µM. The TGI was found to be 39.9 µM in the test on MDA-N; 3.66 µM in the test on CAKI-1 renal; 46.8 µM with MCF7 breast; 52.6 µM in the test with SF-268 CNS; 51.4 µM in the test with UACC-62 melanoma.

`CC[C@H]1C=CCC[C@@]2(C[C@@H]3CC[C@@H]4[C@H](C(=O)OCCCCCCCCCCCCCCCC(=O)N(CCCN)C[C@@H](O)CCN)[C@]5(CCC[C@@H](C)O5)NC(=[N+]34)N2)O1`: the TGI was 3.52 µM with SF-295 CNS; 2.37 µM in the test on SF-539 CNS; 2.38 µM with RXF 393 renal; 0.673 µM in the test with SK-MEL-2 melanoma; above 10 µM with DU-145 prostate; above 5.94 µM in the test with OVCAR-4 ovarian. The TGI with MDA-N amounted to 1.14 µM; in the test on MCF7 breast, 1.71 µM; with SF-268 CNS, 2.41 µM; with UACC-62 melanoma, 0.239 µM.

As for `CCOC(=O)/C=C(/C(=O)OCC)n1cc(C)c(=O)n(Cc2cnnn2CCCCOC(C)=O)c1=O`, the TGI in the test on SF-295 CNS was above 100 µM; with SF-539 CNS, 32.9 µM; with RXF 393 renal it was above 100 µM; in the test with SK-MEL-2 melanoma it was above 100 µM; with DU-145 prostate it was above 100 µM; in the test with OVCAR-4 ovarian, above 100 µM. For the same molecule, the TGI in the test on MDA-N was above 100 µM; in the test with CAKI-1 renal it was 21.4 µM; in the test with MCF7 breast, 32.5 µM; in the test on SF-268 CNS, above 100 µM; with UACC-62 melanoma it was 57.7 µM.

`CO[P@]1(=O)O[C@@H](c2ccccc2)[C@H](O)[C@]1(O)c1ccccc1`: the TGI in the test on SF-295 CNS, in the test on SF-539 CNS, with RXF 393 renal, in the test with SK-MEL-2 melanoma, with DU-145 prostate and in the test on OVCAR-4 ovarian was above 100 µM throughout. Besides, the TGI in the test on MDA-N, in the test on CAKI-1 renal, with MCF7 breast, in the test on SF-268 CNS and in the test on UACC-62 melanoma was above 100 µM each time.

Regarding `O=C(O)C(Cc1cccs1)C(=O)O`, the TGI with RXF 393 renal, with SK-MEL-2 melanoma, in the test with DU-145 prostate, in the test with OVCAR-4 ovarian, in the test with MDA-N and in the test on CAKI-1 renal was above 100 µM throughout. The TGI with MCF7 breast, in the test on SF-268 CNS and with UACC-62 melanoma was above 100 µM in each case.

Take `COc1cccc(/C=C/C2=NN(c3cccc(S(=O)(=O)O)c3)C3(C2)SCC(=O)N3c2nc3ccccc3s2)c1` (stereo not given): the TGI in the test with SF-539 CNS was 37.4 µM; in the test on RXF 393 renal it was above 100 µM; in the test on SK-MEL-2 melanoma, above 100 µM; in the test on DU-145 prostate it was 93.1 µM; with OVCAR-4 ovarian, above 100 µM; in the test on MDA-N, above 100 µM. Also, the TGI with CAKI-1 renal, in the test with MCF7 breast, in the test on SF-268 CNS and in the test on UACC-62 melanoma was above 100 µM throughout.

In the case of `CCN(CC)C(=O)CCCCCCCCC1CO1` (stereo not given), the TGI in the test on SF-295 CNS, in the test on SF-539 CNS, with RXF 393 renal, with SK-MEL-2 melanoma, with DU-145 prostate and in the test with OVCAR-4 ovarian was above 100 µM each time. For the same molecule, the TGI in the test with MDA-N, in the test with CAKI-1 renal, in the test with MCF7 breast, with SF-268 CNS and with UACC-62 melanoma was above 100 µM each time.

Take `CCCCCc1c(CCCC)c(=O)[nH]c2cc(CNCC(OC)OC)ccc12`: the TGI turned out to be 32.2 µM in the test on SF-295 CNS; 28.4 µM with SF-539 CNS; 27.1 µM in the test with RXF 393 renal; 28.4 µM in the test on SK-MEL-2 melanoma; 28 µM with DU-145 prostate; 30.9 µM in the test with OVCAR-4 ovarian. Besides, the TGI came out at 24 µM in the test with MDA-N; 24.6 µM in the test on CAKI-1 renal; 27.8 µM in the test with MCF7 breast; 32.6 µM in the test on SF-268 CNS; 12.2 µM with UACC-62 melanoma.

Consider `c1ccc(N=NNNc2ccc(-c3nc4ccccc4[nH]3)cc2)cc1`, for which the TGI in the test on SF-295 CNS is 68 µM; with SF-539 CNS, above 100 µM; in the test on RXF 393 renal, 55.8 µM; in the test on SK-MEL-2 melanoma, 88.7 µM; with DU-145 prostate, above 100 µM; in the test on OVCAR-4 ovarian it was above 100 µM. The TGI is above 100 µM in the test with MDA-N, above 100 µM in the test with CAKI-1 renal and 69.9 µM with MCF7 breast.

Turning to `CN(C)CCCOC(=O)C(O)(Cc1ccccc1)C1CC1` (stereo not given), the TGI with SF-295 CNS, with SF-539 CNS, with RXF 393 renal, in the test on SK-MEL-2 melanoma, in the test with DU-145 prostate and in the test on OVCAR-4 ovarian was above 100 µM throughout. For the same molecule, the TGI with MDA-N, with CAKI-1 renal, in the test on MCF7 breast, in the test on SF-268 CNS and in the test with UACC-62 melanoma was above 100 µM in each case.

As to `O=C(c1cccs1)N(C(=O)N1CCC(c2ccccc2)CC1)c1ccccc1`, the TGI with SF-295 CNS, in the test with SF-539 CNS, in the test on RXF 393 renal, with SK-MEL-2 melanoma, in the test on DU-145 prostate and in the test on MDA-N was above 100 µM throughout. Besides, the TGI in the test with CAKI-1 renal, in the test with MCF7 breast, in the test on SF-268 CNS and with UACC-62 melanoma was above 100 µM in each case.

Take `Clc1ccc(OCc2nnc(CCCCCCCCc3nnc(COc4ccc(Cl)cc4Cl)o3)o2)c(Cl)c1`: the TGI in the test on SF-295 CNS, with RXF 393 renal, in the test with SK-MEL-2 melanoma, with DU-145 prostate, in the test on OVCAR-4 ovarian and in the test on MDA-N was above 100 µM in each case. Besides, the TGI in the test on CAKI-1 renal is 53.4 µM; in the test with MCF7 breast, above 100 µM; with SF-268 CNS, above 100 µM; in the test on UACC-62 melanoma it was above 100 µM.
